Measured values as given in the NIST ThermoML archive (doi:10.1016/j.jct.2007.04.005).
Numbers after ± are expanded uncertainties.

Assay: xn = mol fraction of the nth substance listed
Details: 328.15 K, Liquid

CCCCCCCCC [nonane] + C1CCCCC1
mass density [kg/m3]
Details | x2 = 0 | x2 = 0.09303 | x2 = 0.2009 | x2 = 0.3051 | x2 = 0.417 | x2 = 0.512 | x2 = 0.5996 | x2 = 0.7052 | x2 = 0.7993 | x2 = 0.9039
18340 kPa | – | – | – | – | – | – | – | 737.9 ± 1.3 | 744.5 ± 1.3 | 753.1 ± 1.2
20370 kPa | 708.4 ± 1.6 | 711.2 ± 1.6 | 715.1 ± 1.5 | 719 ± 1.5 | 723.6 ± 1.5 | 728 ± 1.5 | 733 ± 1.4 | 739.5 ± 1.4 | 746.2 ± 1.4 | 754.8 ± 1.3
22390 kPa | 710 ± 1.7 | 712.8 ± 1.7 | 716.7 ± 1.6 | 720.6 ± 1.6 | 725.2 ± 1.6 | 729.6 ± 1.5 | 734.7 ± 1.5 | 741.2 ± 1.5 | 747.9 ± 1.4 | 756.5 ± 1.4
24420 kPa | 711.5 ± 1.8 | 714.4 ± 1.7 | 718.2 ± 1.7 | 722.2 ± 1.7 | 726.8 ± 1.6 | 731.2 ± 1.6 | 736.3 ± 1.6 | 742.8 ± 1.5 | 749.5 ± 1.5 | 758.1 ± 1.4
26450 kPa | 713 ± 1.9 | 715.9 ± 1.8 | 719.8 ± 1.8 | 723.7 ± 1.8 | 728.3 ± 1.7 | 732.7 ± 1.7 | 737.9 ± 1.6 | 744.4 ± 1.6 | 751.1 ± 1.6 | 759.8 ± 1.5
28470 kPa | 714.5 ± 1.9 | 717.4 ± 1.9 | 721.3 ± 1.9 | 725.2 ± 1.8 | 729.8 ± 1.8 | 734.2 ± 1.8 | 739.4 ± 1.7 | 746 ± 1.7 | 752.6 ± 1.6 | 761.4 ± 1.6
29490 kPa | 715.2 ± 2 | 718.1 ± 1.9 | 722 ± 1.9 | 725.9 ± 1.9 | 730.6 ± 1.8 | 735 ± 1.8 | 740.2 ± 1.8 | 746.7 ± 1.7 | 753.4 ± 1.7 | 762.1 ± 1.6
30500 kPa | 716 ± 2 | 718.8 ± 2 | 722.8 ± 1.9 | 726.7 ± 1.9 | 731.3 ± 1.9 | 735.7 ± 1.8 | 740.9 ± 1.8 | 747.5 ± 1.7 | 754.2 ± 1.7 | 762.9 ± 1.6
32530 kPa | 717.4 ± 2.1 | 720.3 ± 2.1 | 724.2 ± 2 | 728.1 ± 2 | 732.8 ± 1.9 | 737.2 ± 1.9 | 742.4 ± 1.9 | 748.9 ± 1.8 | 755.7 ± 1.8 | 764.4 ± 1.7
34550 kPa | 718.8 ± 2.2 | 721.7 ± 2.1 | 725.6 ± 2.1 | 729.6 ± 2.1 | 734.2 ± 2 | 738.7 ± 2 | 743.9 ± 1.9 | 750.5 ± 1.9 | 757.1 ± 1.8 | 765.9 ± 1.8
36580 kPa | 720.2 ± 2.3 | 723.1 ± 2.2 | 727 ± 2.2 | 730.9 ± 2.1 | 735.7 ± 2.1 | 740.1 ± 2 | 745.3 ± 2 | 751.9 ± 1.9 | 758.6 ± 1.9 | 767.4 ± 1.8
38600 kPa | 721.6 ± 2.3 | 724.4 ± 2.3 | 728.4 ± 2.3 | 732.3 ± 2.2 | 737 ± 2.2 | 741.5 ± 2.1 | 746.7 ± 2.1 | 753.3 ± 2 | 760 ± 2 | 768.9 ± 1.9
39620 kPa | 722.2 ± 2.4 | 725.1 ± 2.3 | 729 ± 2.3 | 733 ± 2.2 | 737.7 ± 2.2 | 742.1 ± 2.2 | 747.4 ± 2.1 | 754 ± 2.1 | 760.7 ± 2 | 769.6 ± 1.9
